From US4028396A, “16,16-Spirocycloalkyl prostaglandin derivatives” (American Cyanamid Company, priority 1975, dated 1977)

Assays:
[1] = test system: bronchospasms elicited by 5-hydroxytryptamine; assay: bronchodilator activity, Konzett procedure, 5-hydroxytryptamine bronchospasm; assay type: in vivo, guinea pigs; details: Cavia porcellus; three logarithmic cumulative intravenous doses; spasmogen 5-hydroxytryptamine
Procedure: (§1) The compounds of this invention are useful as bronchodilators for the treatment of asthma and chronic bronchitis. Bronchodilator activity is determined in guinea pigs against bronchospasms elicited by intravenous injections of 5-hydroxytryptamine, histamine or acetylcholine by the Konzett procedure. [See J. Lulling, P. Lievens, F. El Sayed and J. Prignot, Arzneimittel-Forschung, 18, 955 (1968).]
(§2) In Table A which follows bronchodilator activity for representative compounds of this invention against one or more of three spasmogenic agents is expressed as an ED50 determined from the results obtained with three logarithmic cumulative intravenous doses.

[2] = test system: bronchospasms elicited by histamine; assay: bronchodilator activity, Konzett procedure, histamine bronchospasm; assay type: in vivo, guinea pigs; details: Cavia porcellus; three logarithmic cumulative intravenous doses; spasmogen histamine
Procedure: as §1, §2

[3] = test system: bronchospasms elicited by acetylcholine; assay: bronchodilator activity, Konzett procedure, acetylcholine bronchospasm; assay type: in vivo, guinea pigs; details: Cavia porcellus; three logarithmic cumulative intravenous doses; spasmogen acetylcholine
Procedure: as §1, §2

[4] = test system: basal gastric acid secretion; assay: inhibition of gastric acid secretion in the acute gastric fistula rat; assay type: in vivo, Female Sprague-Dawley rats; details: 10 mg./kg., intraduodenal
Procedure: The compounds of this invention are also useful as inhibitors of gastric acid secretion and peptic ulcer formation and may be used for the treatment of gastric hyperacidity, gastric erosion, and peptic ulcer. Inhibition of basal gastric acid secretion can be determined by the following procedure.
Female Sprague-Dawley rats weighing 140-160 grams are fasted in individual cages for 18-24 hours. The rats are then lightly anesthetized with ether and their front teeth extracted to avoid destruction of the plastic cannula. A midline incision is then made and the stomach and duodenum exposed. A flanged polyvinyl tube is inserted into the fundic portion of the stomach and secured with a purse string suture line using 4-0 Mersilene. The rat is then dosed by injection of the compound into the duodenum (1.0 ml. per 100 gram body weight). After dosing, the abdominal wall and skin are closed using metal wound clips. The rat is replaced in a cage containing a longitudinal slit to allow the polyvinyl tube to hang freely. An 8 ml. plastic collecting tube is attached to the flanged cannula and hangs freely below the cage. The first 30 minute sample is discarded designating this time as zero. The collecting tube is attached again and samples removed at the end of 60 and 120 minutes. The hourly samples are then transferred to a 15 ml. centrifuge and centrifuged for 5-10 minutes. Total and sediment volume are then recorded with supernatant volume being used as volume of secretion. A 1 ml. or less aliquot is then removed and placed in a 50 ml. beaker containing 10 ml. of distilled water. This sample is then titrated using 0.01N NaOH to pH 7.0 using a Beckman zeromatic pH meter. Volume, tritratable acidity (meq/L) and total acid output (ueg/hour) are recorded. Percent inhibition is determined by comparison with the appropriate control. Groups of three rats were used for preliminary testing, and groups of six rates were used for dose-response evaluations. All compounds are administered in a vehicle consisting of 0.5% methocel, 0.4% tween 80, and saline at a constant volume of 1 ml./100 gram rat. Samples are dispersed by sonification. Percent inhibition is calculated on basis of concurrent vehicle control.
In Table B which follows is given the effect on total acid output after 60 minutes (response A) and 120 minutes (response B) for various doses of representative compounds of this invention.

[5] = test system: basal gastric acid secretion; assay: as above; assay type: in vivo, Female Sprague-Dawley rats; details: oral
[6] = test system: gastric acid output stimulated by gastrin tetrapeptide; assay: gastric fistula dog, gastric acid output stimulated by gastrin tetrapeptide; assay type: in vivo; details: oral, 0.16 mg./kg., % of the control output
Procedure: (§3) With the former agent a dose of 0.16 mg./kg. is sufficient to inhibit more than 50% of the control output.

[7] = test system: gastric acid output stimulated by histamine; assay: gastric fistula dog, gastric acid output stimulated by histamine; assay type: in vivo; details: oral
Procedure: as §3

smooth muscle = details: cited from earlier work
[8] = test system: systemic arterial blood pressure; details: in vivo; cited from earlier work
[9] = test system: mobilization of free fatty acids; details: cited from earlier work
[10] = cited from earlier work

| Structure (SMILES) | ED50 [1] | ED50 [2] | ED50 [3] | %-Inhibition of Total Acid Output ([4]; after 60 min.) | %-Inhibition of Total Acid Output ([4]; after 120 min.) | %-Inhibition of Total Acid Output ([5]; 10 mg./kg., after 60 min.) | %-Inhibition of Total Acid Output ([5]; 10 mg./kg., after 120 min.) | further results |
| --- | --- | --- | --- | --- | --- | --- | --- | --- |
| CCCCC1([C@@H](O)/C=C/[C@H]2CCC(=O)[C@@H]2CCCCCCC(=O)O)CCC1 (relative stereo) [9-oxo-15-epi-hydroxy-16,16-trimethylene-13-trans-prostenoic acid] | 0.135 mg/kg | 0.014 mg/kg | 0.003 mg/kg | 98% | 92% | 85% | 61% |  |
| CCCCC1([C@H](O)/C=C/[C@H]2CCC(=O)[C@@H]2CCCCCCC(=O)O)CCC1 (relative stereo) [9-oxo-15-hydroxy-16,16-trimethylene-13-trans-prostenoic acid] | 0.02 mg/kg | 0.0024 mg/kg | 0.048 mg/kg | 98% | 75% |  |  | %-Inhibition of Total Acid Output ([5]; 2.5 mg./kg., after 60 min.): 86%; %-Inhibition of Total Acid Output ([5]; 2.5 mg./kg., after 120 min.): 83% |
| CCCCC1([C@H](O)/C=C/[C@H]2[C@H](O)CC(=O)[C@@H]2C/C=C\CCCC(=O)O)CCC1 (relative stereo) [11α,15-dihydroxy-9-oxo-16,16-trimethylene-5-cis,13-trans-prostadienoic acid] | 0.0025 mg/kg | 0.0015 mg/kg | 0.0011 mg/kg | 100% | 100% | 100% | 100% | inhibition of gastric acid output stimulated by gastrin tetrapeptide [6]: more than 50%; inhibition of the stimulation of gastric acid output by histamine [7]: will inhibit the stimulation of gastric acid output; %-Inhibition of Total Acid Output ([5]; 0.63 mg./kg., after 60 min.): 30%; %-Inhibition of Total Acid Output ([5]; 0.63 mg./kg., after 120 min.): 35%; %-Inhibition of Total Acid Output ([5]; 1.25 mg./kg., after 60 min.): 40%; %-Inhibition of Total Acid Output ([5]; 1.25 mg./kg., after 120 min.): 36%; %-Inhibition of Total Acid Output ([5]; 2.5 mg./kg., after 60 min.): 87%; %-Inhibition of Total Acid Output ([5]; 2.5 mg./kg., after 120 min.): 74% |
| CCCCC1([C@@H](O)/C=C/[C@H]2[C@H](O)CC(=O)[C@@H]2C/C=C\CCCC(=O)O)CCC1 (relative stereo) [11α,15-epi-dihydroxy-9-oxo-16,16-trimethylene-5-cis,13-trans-prostadienoic acid] | 0.305 mg/kg | 0.048 mg/kg | 0.032 mg/kg | 98% | 86% | 32% | 39% |  |
| CCCCC1([C@@H](O)/C=C/[C@H]2CCC(=O)[C@@H]2CCCCCCC(=O)OCC)CCC1 (relative stereo) [ethyl 15-epi-hydroxy-9-oxo-16,16-trimethylene-13-trans-prostenoate] |  |  |  | 98% | 87% | 77% | 67% |  |
| CCCCC1([C@H](O)/C=C/[C@H]2CCC(=O)[C@@H]2CCCCCCC(=O)OCC)CCC1 (relative stereo) [ethyl 15-hydroxy-9-oxo-16,16-trimethylene-13-trans-prostenoate] |  |  |  | 100% | 100% | 48% | 38% |  |
| CCCCC[C@H](O)/C=C/[C@H]1[C@H](O)CC(=O)[C@@H]1CCCCCCC(=O)O [PGE1] |  |  |  |  |  |  |  | potency in causing smooth muscle stimulation (smooth muscle): extremely potent; potency in causing vasodepression [8]: extremely potent; potency as antilipolytic agent [9]: potent |
| CCCCC[C@H](O)/C=C/[C@H]1[C@H](O)CC(=O)[C@@H]1C/C=C\CCCC(=O)O [prostaglandin E2] |  |  |  |  |  |  |  | time within which the solution must be used ([10]; room temperature): one day; time within which saline solution should preferably be used ([10]; saline solution stored at 40° C. (so in the source), preferably): 2 to 3 days; time within which saline solution should be used ([10]; saline solution stored at 40° C. (so in the source)): a week; decrease in biological activity on storage ([10]; ten days storage at 4° C., concentration 100 mg./ml.): significant decrease; potency in causing smooth muscle stimulation (smooth muscle): extremely potent; potency in causing vasodepression [8]: extremely potent; potency as antilipolytic agent [9]: potent |
